These results are taken from article PMC6234866, “High-Affinity Chemotaxis to Histamine Mediated by the TlpQ Chemoreceptor of the Human Pathogen Pseudomonas aeruginosa” (mBio, 2018).

In one test the target is PctA-LBD (Pseudomonas aeruginosa, UniProt G3XD24). As to conditions: for binding to PctA-LBD (in words): direct microcalorimetric titration.
The test system of test [1] is Ralstonia pseudosolanacearum Ps29. As to conditions: 5 mM histamine, strain Ps29.
The test system is the same in test [2]. Particulars: Ps29, minimal medium, 5 mM.
Test [3] concerns P. aeruginosa PA14 mutant defective in pctA, pctC and tlpQ. As to conditions: deletion of pctA, tlpQ homologues. The method, then: (§1) Two protocols were used that differed in the ways the cells were counted. The first protocol was used to generate the data shown Fig. S6, whereas the second protocol was used for the remaining chemotaxis experiments. In the first protocol, overnight cultures of strains were diluted to an OD660 of 0.05 in MS medium ([58]) supplemented with 6 mg·liter^−1 Fe citrate, trace elements, and 15 mM glucose and grown at 37°C. At an OD660 of 0.4, the cultures were centrifuged at 1,700 × g for 5 min and the pellet was washed twice with chemotaxis buffer (50 mM potassium phosphate, […], 0.05% [vol/vol] glycerol, pH 7.0). The cells were resuspended in this buffer and adjusted to an OD660 of 0.1, and 230-µl aliquots were placed into 96-well plates. Capillary tubes (P1424, Microcaps; Drummond Scientific) were heat sealed at one end and filled with chemotaxis buffer or chemotaxis chemoattractant solution. The capillaries were then immersed in bacterial suspensions at their open ends. After 30 min at room temperature, the capillaries were removed and rinsed with sterile water, and the content was expelled into 1 ml of M9 medium. Serial dilutions were plated on LB medium, and the CFU were determined. In all cases, the data were corrected to the number of cells that swam into the buffer-containing capillaries. In the second protocol, we used computer-assisted image analysis as reported previously ([59]). Briefly, capillaries were filled with chemoattractant solutions in 10 mM HEPES buffer (pH 7.0) containing 1% (wt/vol) agarose and heat sealed on one side. The cells were grown in 2× yeast extract-tryptone (YT), medium and 10-μl aliquots of the cell suspension were placed onto a microscope slide within the U-shaped spacer, which was then covered by a coverslip. The chemoattractant-filled capillaries were introduced into the chemotaxis chamber, and cell movement was videotaped, with images taken at the beginning and at different time intervals. If not otherwise stated, the contact time between the cell and the chemoattractant was 2 min. The Bioinformatics Assistant Icy Sport detector software ([60]) was used to determine the number of cells per image. The magnitude of chemotaxis was expressed as the number of cells after a given time over the number of cells at the beginning of the experiment. The data shown are the means and standard deviations from three experiments conducted in triplicates.

Test [4] deals with P. aeruginosa strains 233, 401 and PA14. Particulars: 5 mM histamine; all analyzed P. aeruginosa strains. The method, then:
as §1

For test [5], the system named is P. aeruginosa PAO1 mutant strains. The method, then:
as §1

In the next test the test system is P. aeruginosa PAO1. Particulars: PAO1, capillary assay. The method, then:
as §1

Test [6] addresses TlpQ-LBD. Briefly: biochemical. The test is classed as binding, Pseudomonas aeruginosa PAO1. Particulars: ratio of ITC KD values.
In test [7] the target is TlpQ-LBD (Pseudomonas aeruginosa, UniProt Q9I0I4). Briefly: biochemical. The test is classed as binding, Pseudomonas aeruginosa PAO1.
For test [8], the target named is T1, McpU-LBD (Pseudomonas putida, UniProt Q88NI1). Briefly: ITC binding of ligands to McpU-LBD. Also noted: species or system Pseudomonas putida KT2440. Particulars: for ΔH McpU-LBD / Kd: 25°C; for Kd: polybuffer pH 7.0.
The test system of a further test is PAO1. Briefly: Growth with ligand as sole carbon or nitrogen source, PAO1. As to conditions: PAO1, minimal medium, 5 mM ligand.
A further test deals with PctC-LBD (Pseudomonas aeruginosa, UniProt Q9HW93). Briefly: Microcalorimetric binding studies with PctC-LBD. On the set-up: species or system Pseudomonas aeruginosa PAO1. As to conditions: direct microcalorimetric titration.
Test [9] deals with T1, McpU-LBD. Briefly: Thermal shift assay of McpU-LBD. The test is classed as binding, Pseudomonas putida KT2440. As to conditions: 10 µM McpU-LBD, Biolog plate PM3B; Tm without ligand 46.5°C. The method, then: Thermal shift experiments were conducted as reported in reference in [57]. McpU-LBD in polybuffer {5 mM Tris, 5 mM PIPES [piperazine-N,N′-bis(2-ethanesulfonic acid)], 5 mM MES [morpholineethanesulfonic acid], 10% glycerol [vol/vol], 150 mM NaCl, pH 7.0} was used at a final concentration of 10 µM. Biolog (Hayward, CA, USA) compound arrays PM3B (nitrogen sources), PM4A (phosphorous and sulfur sources), and PM5 (nutrient supplements) were used for screening. The compositions of these arrays are provided at http://208.106.130.253/pdf/pm_lit/PM1-PM10.pdf.

In another test the test system is KT2440. Briefly: Growth with ligand as sole carbon or nitrogen source, KT2440. As to conditions: KT2440, minimal medium, 5 mM ligand.
Test [10] deals with T1, McpU-LBD. As to conditions: read-out: KD McpU-LBD; ITC; reported previously; cited from earlier work.

Read-outs that look alike come from different tables or passages of the source.

T1 sequence (Q88NI1 50-284): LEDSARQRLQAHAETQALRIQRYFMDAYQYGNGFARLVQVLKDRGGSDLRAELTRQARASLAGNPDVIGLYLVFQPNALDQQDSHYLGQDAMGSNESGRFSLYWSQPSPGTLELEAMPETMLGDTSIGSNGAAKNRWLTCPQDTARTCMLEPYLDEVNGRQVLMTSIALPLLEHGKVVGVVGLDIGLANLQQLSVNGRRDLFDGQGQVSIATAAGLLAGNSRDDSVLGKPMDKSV
Sequence of TlpQ-LBD (Pseudomonas aeruginosa, UniProt Q9I0I4) (Q9I0I4 33-359): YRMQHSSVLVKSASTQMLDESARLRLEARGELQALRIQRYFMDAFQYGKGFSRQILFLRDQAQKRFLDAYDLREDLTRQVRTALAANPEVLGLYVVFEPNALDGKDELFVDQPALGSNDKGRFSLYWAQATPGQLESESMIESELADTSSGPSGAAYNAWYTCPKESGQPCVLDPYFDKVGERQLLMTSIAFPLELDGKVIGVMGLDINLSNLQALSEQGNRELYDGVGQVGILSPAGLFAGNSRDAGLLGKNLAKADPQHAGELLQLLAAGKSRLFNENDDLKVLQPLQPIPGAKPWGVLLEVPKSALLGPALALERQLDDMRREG
Sequence of PctA-LBD (G3XD24 32-276): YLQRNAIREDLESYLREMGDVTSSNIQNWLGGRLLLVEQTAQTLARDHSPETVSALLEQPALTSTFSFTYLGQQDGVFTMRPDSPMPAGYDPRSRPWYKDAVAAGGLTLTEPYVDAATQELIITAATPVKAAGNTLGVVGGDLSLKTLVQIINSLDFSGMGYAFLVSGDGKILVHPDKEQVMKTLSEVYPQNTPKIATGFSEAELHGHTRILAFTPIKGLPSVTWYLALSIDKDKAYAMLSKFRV
Sequence of PctC-LBD (Q9HW93 32-279): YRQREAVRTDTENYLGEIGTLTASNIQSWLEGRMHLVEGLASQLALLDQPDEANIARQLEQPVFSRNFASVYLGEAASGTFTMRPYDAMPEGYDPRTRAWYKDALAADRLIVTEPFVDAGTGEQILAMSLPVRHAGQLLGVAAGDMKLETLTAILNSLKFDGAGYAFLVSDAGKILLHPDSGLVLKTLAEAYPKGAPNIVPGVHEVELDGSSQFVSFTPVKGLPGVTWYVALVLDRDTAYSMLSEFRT

The Kd is a measure of binding affinity in units of concentration. As for `NCCc1c[nH]cn1` [Histamine], the “binding to PctA-LBD, competition assay (in words)” value at PctA-LBD (PctA-LBD titrated with L-Ala with and without 20 mM histamine) is recorded as “does not bind directly”. Moreover, the “binding to PctA-LBD (in words)” value on PctA-LBD is reported as “did not bind”. In addition, the “chemotaxis (in words)” value is given as “not attracted” in [1]; “significant chemotaxis” in test [4]; “much stronger” in the test with P. aeruginosa PAO1 (2 min); “only moderate chemotaxis” with P. putida KT2440 (KT2440, histamine dose response). In addition, the “growth as sole carbon and nitrogen source” value in [2] is recorded as “no significant growth”. Further, the “chemotaxis of PA14 triple mutant” value in test [3] is on record as “abolished histamine chemotaxis”. Moreover, in test [5] (500 µM histamine, 2.5 min), the “chemotaxis of PCT2Q complemented with pctA, pctC or tlpQ” value is listed as “significant chemotaxis”. In test [5] (500 µM histamine, exposure time 1 min), the “chemotaxis of PCT2Q complemented with pctC or tlpQ in trans” value is “recovered histamine chemotaxis”. For the same compound, the “chemotaxis of strain PCT2 (pctA, pctB, pctC deleted)” value in test [5] (5 mM histamine) was “abolished chemotaxis”. In test [5] (dose response), the “concentration range of significant chemotaxis of PCT2 mutant” value was 0.5 µM and 500 µM. The “chemotaxis of PCT2Q mutant (pctABC and tlpQ deleted)” value in [5] (entire concentration range 50 nM to 50 mM) is given as “devoid of histamine chemotaxis”. Moreover, the “concentration at onset of chemotactic response” value in the test with P. aeruginosa PAO1 came to 500 nM; in the test on P. putida KT2440 (KT2440, capillary assay), 5 µM. Further, at TlpQ-LBD [6], the “KD McpU-LBD/KD TlpQ-LBD” value was 41. Besides, the Kd on TlpQ-LBD [7] was found to be 639 ± 27 nM; at McpU-LBD [8], 26000 ± 2000 nM. At TlpQ-LBD [7] (ITC, 25°C), the “ΔH TlpQ-LBD” value was -9.1 ± 0.3 kcal/mol. The “binding to McpU-LBD (in words)” value on McpU-LBD [8] was “much lower affinities”. Further, the “ΔH McpU-LBD” value at McpU-LBD [8] was -2.6 ± 0.3 kcal/mol. Besides, the “growth as sole carbon or nitrogen source” value with PAO1 and in the test on KT2440 was “permitted the growth” in each case. In addition, the “binding to PctC-LBD (in words)” value at PctC-LBD is “did not bind”. Besides, the “Tm increase of McpU-LBD” value on McpU-LBD [9] is “greater than 2 °C”.
On to `C[C@H](N)C(=O)O` [L-Ala, L-alanine, reference compound], for which the “binding to PctA-LBD (in words)” value on PctA-LBD is “bound”.
Consider `NCCCCCN` [Cadaverine], for which the Kd on McpU-LBD [10] is 22000 ± 2000 nM; at TlpQ-LBD [7] it was 150 ± 4 nM. Also, the “KD McpU-LBD/KD TlpQ-LBD” value at TlpQ-LBD [6] turned out to be 147. The “ΔH TlpQ-LBD” value at TlpQ-LBD [7] (ITC, 25°C) was -6.0 ± 0.1 kcal/mol. Moreover, the “ΔH McpU-LBD” value at McpU-LBD [8] is -15.5 ± 0.5 kcal/mol.
Consider `NCCN` [Ethylenediamine], for which the “KD McpU-LBD/KD TlpQ-LBD” value at TlpQ-LBD [6] turned out to be 23. Besides, the “binding to TlpQ-LBD (in words)” value at TlpQ-LBD [7] (ITC) is “slightly weaker”. The “ΔH TlpQ-LBD” value on TlpQ-LBD [7] (ITC, 25°C) is -6.3 ± 0.6 kcal/mol. Besides, the Kd on TlpQ-LBD [7] (ITC, 25°C, polybuffer pH 7.0, read-out: KD TlpQ-LBD) was found to be 1710 nM. Besides, at McpU-LBD [8], the “binding to McpU-LBD (in words)” value is “much lower affinities”, the “ΔH McpU-LBD” value was -9.7 ± 0.5 kcal/mol and the Kd is 39000 ± 4000 nM. Also, in the test on PAO1, the “growth as sole carbon or nitrogen source” value is listed as “either not or were poor growth substrates”. For the same compound, at McpU-LBD [9], the “Tm increase of McpU-LBD” value is “greater than 2 °C”. Also, the “growth as sole carbon or nitrogen source” value in the test on KT2440 is recorded as “either not or were poor growth substrates”.
As for `NCCCCNCCCN` [Spermidine], the Kd is 4500 ± 400 nM on McpU-LBD [10] and 56 ± 4 nM on TlpQ-LBD [7]. Moreover, the “KD McpU-LBD/KD TlpQ-LBD” value on TlpQ-LBD [6] was 80. Also, the “ΔH TlpQ-LBD” value at TlpQ-LBD [7] (ITC, 25°C) was -4.6 ± 0.4 kcal/mol. Moreover, the “ΔH McpU-LBD” value at McpU-LBD [8] is -4.3 ± 0.3 kcal/mol. In addition, the “growth as sole carbon or nitrogen source” value in the test on PAO1 and in the test on KT2440 was “either not or were poor growth substrates” each time.
For `C=C` [ethylene], the “binding to TlpQ-LBD (in words)” value at TlpQ-LBD [7] (ITC) is “did not show any binding”.
For `NCCCCN=C(N)N` [Agmatine], at TlpQ-LBD [6], the “KD McpU-LBD/KD TlpQ-LBD” value is on record as 3. At TlpQ-LBD [7], this compound came in with a Kd of 150 ± 9 nM. Moreover, on TlpQ-LBD [7] (ITC, 25°C), the “ΔH TlpQ-LBD” value is -5.4 ± 0.1 kcal/mol. In addition, on McpU-LBD [8], the “binding to McpU-LBD (in words)” value is recorded as “Very tight binding”, the “ΔH McpU-LBD” value was -14.5 ± 0.2 kcal/mol and the Kd amounted to 480 ± 20 nM. The “Tm increase of McpU-LBD” value on McpU-LBD [9] is “greater than 2 °C”.
For `NC(=O)CC[C@H](N)C(=O)O` [L-Gln, reference compound], the “binding to PctC-LBD (in words)” value at PctC-LBD is on record as “bound”.
As for `NCCCCN` [Putrescine], the dissociation constant (Kd) at McpU-LBD [10] is 2000 ± 100 nM; on TlpQ-LBD [7] it was 134 ± 12 nM. Also, the “KD McpU-LBD/KD TlpQ-LBD” value on TlpQ-LBD [6] is on record as 15. Further, the “ΔH TlpQ-LBD” value on TlpQ-LBD [7] (ITC, 25°C) is -6.8 ± 0.3 kcal/mol. Also, at McpU-LBD [8], the “ΔH McpU-LBD” value is -15 ± 0.5 kcal/mol.
